Experimental data from US5162328A, “N-[3-[2-(1H-imidazol-1-yl)ethoxy]phenyl]-4-(2-thienyl)-2-pyrimidinamine and pharmacologically acceptable salts” (American Cyanamid Company, priority 1991, dated 1992).
Like-named read-outs stand apart in the source and are kept apart here.

Test: Pharmacokinetics in dogs (plasma concentration by HPLC)
Format: in vivo, dog (beagle)
Conditions: dog; for concentration at 0.5 h / concentration at 1 h / concentration at 2 h / concentration at 4 h / concentration at 7 h / concentration at 12 h / AUC(0-t) / Cmax / Tmax / half-life / AUC(0-inf): plasma, po, 2 mg/kg/day, 2 mg/kg/day PO; for AUC(0-inf): read-out: AUCO- (to infinite time)
Procedure: Since dogs are used in toxicology studies of antiasthma compounds, this species is chosen for pharmacokinetic evaluations. Use of the dog permits the pharmacokinetic comparison of 2 or more compounds in the same test animal, an evaluation which could not be conveniently performed in a smaller species. For each test compound, normal dogs are given a dose of 2.0 mg/kg/day for 5 consecutive days. There is a washout period of 1 month between the study of each of the test compounds in the same four dogs. Each test compound is administered as a solution of 5 mg/ml in either 0.05 or 0.1N HCl which is dispensed into a gelatin capsule immediately prior to dosage.
Heparinized blood samples are obtained from each animal on the first, third and fifth day of dosage at 0.5, 1.0, 2.0, 4.0, 7.0, 12.0 and 24.0 hours after the dose. The samples are centrifuged immediately to obtain plasma which is frozen until analyzed.
Analysis of plasma is performed using High Performance Liquid Chromatography (HPLC). The analytical procedure is essentially identical for each compound. The internal standard used for N-[3-[2-(1H-imidazol-1-yl)ethoxy]phenyl]-4-(2-thienyl)2-pyrimidinamine is 2-chloro-11-(4-methyl-1-piperazinyl)dibenz[b,f][1,4]oxazepine succinate, while for 2-methyl-N^4 -[4-(4-pyridinyl)-2-pyrimidinyl]-1,4-benzenediamine dihydrochloride and N-[4-[2-(diethylamino)ethoxy]phenyl]-4-(4-pyridinyl)-2-pyrimidnamine dihydrochloride the internal standard is 7-ethoxy-coumarin. In a typical procedure, a 0.4 ml volume of acetonitrile containing internal standard is added a 0.2 ml volume of serum. The sample is mixed by vortexing and centrifuged. The clear protein free supernatent fluid is decanted into a clean tube and evaporated to dryness. The dry residue is dissolved in 0.2 ml of HPLC mobile phase and 50 ul of this solution injected. Peaks corresponding to the test compound being measured and to the internal standard compound are quantitated by their absorption of ultraviolet light at 280 nm. Each set of analytical samples is accompanied by the analysis of a group of standard dog plasma samples prepared to contain amounts of the compound being measured which encompasses the concentration range of the samples.
Four normal beagle dogs weighing between 9.2 and 10.2 Kg are used in the study.

SMILES: c1cc(Nc2nccc(-c3cccs3)n2)cc(OCCn2ccnc2)c1 [N-[3-[2-(1H-imidazol-1-yl)ethoxy]phenyl]-4-(2-thienyl)-2-pyrimidinamine]
- concentration in plasma over a 12 hour period (in words) (after first dose, FIG. 4): at a higher level for a longer period than the other test compounds
- concentration at 0.5 h (Dog 1, day 1, 0.5 h): 483 ng/mL
- concentration at 1 h (Dog 1, day 1, 1 h): 595 ng/mL
- concentration at 2 h (Dog 1, day 1, 2 h): 392 ng/mL
- concentration at 4 h (Dog 1, day 1, 4 h): 281 ng/mL
- concentration at 7 h (Dog 1, day 1, 7 h): 122 ng/mL
- concentration at 12 h (Dog 1, day 1, 12 h): < 30 ng/mL
- AUC(0-t) (Dog 1, day 1): 2160 ng·h/mL
- Cmax (Dog 1, day 1): 595 ng/mL
- Tmax (Dog 1, day 1): 1 h
- half-life (Dog 1, day 1): 2.75 h
- AUC(0-inf) (Dog 1, day 1): 2480 ng·h/mL
- concentration at 0.5 h (Dog 1, day 3, 0.5 h): < 30 ng/mL
- concentration at 1 h (Dog 1, day 3, 1 h): 125 ng/mL
- concentration at 2 h (Dog 1, day 3, 2 h): 98 ng/mL
- concentration at 4 h (Dog 1, day 3, 4 h): < 30 ng/mL
- concentration at 7 h (Dog 1, day 3, 7 h): < 30 ng/mL
- concentration at 12 h (Dog 1, day 3, 12 h): < 30 ng/mL
- AUC(0-t) (Dog 1, day 3): 143 ng·h/mL
- Cmax (Dog 1, day 3): 125 ng/mL
- Tmax (Dog 1, day 3): 1 h
- AUC(0-inf) (Dog 1, day 3): 398 ng·h/mL
- concentration at 0.5 h (Dog 1, day 5, 0.5 h): 339 ng/mL
- concentration at 1 h (Dog 1, day 5, 1 h): 418 ng/mL
- concentration at 2 h (Dog 1, day 5, 2 h): 267 ng/mL
- concentration at 4 h (Dog 1, day 5, 4 h): 112 ng/mL
- concentration at 7 h (Dog 1, day 5, 7 h): < 30 ng/mL
- concentration at 12 h (Dog 1, day 5, 12 h): < 30 ng/mL
- AUC(0-t) (Dog 1, day 5): 996 ng·h/mL
- Cmax (Dog 1, day 5): 418 ng/mL
- Tmax (Dog 1, day 5): 1 h
- half-life (Dog 1, day 5): 1.58 h
- AUC(0-inf) (Dog 1, day 5): 1290 ng·h/mL
- concentration at 0.5 h (Dog 2, day 1, 0.5 h): 185 ng/mL
- concentration at 1 h (Dog 2, day 1, 1 h): 334 ng/mL
- concentration at 2 h (Dog 2, day 1, 2 h): 251 ng/mL
- concentration at 4 h (Dog 2, day 1, 4 h): 161 ng/mL
- concentration at 7 h (Dog 2, day 1, 7 h): < 30 ng/mL
- concentration at 12 h (Dog 2, day 1, 12 h): < 30 ng/mL
- AUC(0-t) (Dog 2, day 1): 881 ng·h/mL
- Cmax (Dog 2, day 1): 334 ng/mL
- Tmax (Dog 2, day 1): 1 h
- half-life (Dog 2, day 1): 2.88 h
- AUC(0-inf) (Dog 2, day 1): 1300 ng·h/mL
- concentration at 0.5 h (Dog 2, day 3, 0.5 h): < 30 ng/mL
- concentration at 1 h (Dog 2, day 3, 1 h): 205 ng/mL
- concentration at 2 h (Dog 2, day 3, 2 h): 129 ng/mL
- concentration at 4 h (Dog 2, day 3, 4 h): 36 ng/mL
- concentration at 7 h (Dog 2, day 3, 7 h): < 30 ng/mL
- concentration at 12 h (Dog 2, day 3, 12 h): < 30 ng/mL
- AUC(0-t) (Dog 2, day 3): 383 ng·h/mL
- Cmax (Dog 2, day 3): 205 ng/mL
- Tmax (Dog 2, day 3): 1 h
- half-life (Dog 2, day 3): 1.18 h
- AUC(0-inf) (Dog 2, day 3): 477 ng·h/mL
- concentration at 0.5 h (Dog 2, day 5, 0.5 h): 54 ng/mL
- concentration at 1 h (Dog 2, day 5, 1 h): 222 ng/mL
- concentration at 2 h (Dog 2, day 5, 2 h): 149 ng/mL
- concentration at 4 h (Dog 2, day 5, 4 h): 30 ng/mL
- concentration at 7 h (Dog 2, day 5, 7 h): < 30 ng/mL
- concentration at 12 h (Dog 2, day 5, 12 h): < 30 ng/mL
- AUC(0-t) (Dog 2, day 5): 447 ng·h/mL
- Cmax (Dog 2, day 5): 222 ng/mL
- Tmax (Dog 2, day 5): 1 h
- half-life (Dog 2, day 5): 0.99 h
- AUC(0-inf) (Dog 2, day 5): 525 ng·h/mL
- concentration at 0.5 h (Dog 3, day 1, 0.5 h): 97 ng/mL
- concentration at 1 h (Dog 3, day 1, 1 h): 325 ng/mL
- concentration at 2 h (Dog 3, day 1, 2 h): 303 ng/mL
- concentration at 4 h (Dog 3, day 1, 4 h): 138 ng/mL
- concentration at 7 h (Dog 3, day 1, 7 h): 45 ng/mL
- concentration at 12 h (Dog 3, day 1, 12 h): < 30 ng/mL
- AUC(0-t) (Dog 3, day 1): 1160 ng·h/mL
- Cmax (Dog 3, day 1): 325 ng/mL
- Tmax (Dog 3, day 1): 1 h
- half-life (Dog 3, day 1): 1.82 h
- AUC(0-inf) (Dog 3, day 1): 1280 ng·h/mL
- concentration at 0.5 h (Dog 3, day 3, 0.5 h): 292 ng/mL
- concentration at 1 h (Dog 3, day 3, 1 h): 350 ng/mL
- concentration at 2 h (Dog 3, day 3, 2 h): 220 ng/mL
- concentration at 4 h (Dog 3, day 3, 4 h): 60 ng/mL
- concentration at 7 h (Dog 3, day 3, 7 h): < 30 ng/mL
- concentration at 12 h (Dog 3, day 3, 12 h): < 30 ng/mL
